According to publication doi:10.1101/2022.04.25.489410v1 (biorxiv, 2022):

Tests used:
Type in all cases: biochemical, uncultured bacterium
SN243 [1] = experiment: product inhibition of pNP-β-GlcA hydrolysis; settings: 10 μM pNP-β-GlcA; 100 mM Tris pH 8.0, 150 mM NaCl, 25 °C
SN243 [2] = experiment: absorbance at […] nm, initial rates, Michaelis-Menten fit; settings: 100 mM Tris pH 8.0, 150 mM NaCl, 25 °C
SN243 [3] = experiment: fluorescence, initial rates, Michaelis-Menten fit; settings: 100 mM Tris pH 8.0, 150 mM NaCl, 25 °C

SMILES | Km (SN243 [2]) | other results
O=C(O)[C@H]1OC(O)[C@H](O)[C@@H](O)[C@@H]1O (some centres unmarked) [GlcA] |  | IC50 (SN243 [1]): 179 µM
O=[N+]([O-])c1ccc(O[C@@H]2O[C@H](CO)[C@@H](O)[C@H](O)[C@H]2O)cc1 [pNP-β-Glc] | 56.5 ± 4.1 mM | 
O=C(O)[C@H]1O[C@@H](Oc2ccc([N+](=O)[O-])cc2)[C@H](O)[C@@H](O)[C@@H]1O [pNP-β-GlcA] | 0.0137 mM | 
O=[N+]([O-])c1ccc(O[C@@H]2OC[C@@H](O)[C@H](O)[C@H]2O)cc1 [pNP-β-Xyl] | 23 ± 0.9 mM | 
O=C1OC2(c3ccc(O[C@@H]4O[C@H](C(=O)O)[C@@H](O)[C@H](O)[C@H]4O)cc3Oc3cc(O[C@@H]4O[C@H](C(=O)O)[C@@H](O)[C@H](O)[C@H]4O)ccc32)c2ccccc21 [FD-β-GlcA] |  | Km (SN243 [3]): 0.008 mM
